Values of other authors, collected in patent publication US20090016973A1, “Composition and Method for the Prevention of Oral Disease” (MICROPURE, INC., priority 2007, published 2009).

Assays:
protein synthesis [1] = details: Benarde et al., 1967
dehydrogenase enzymes = details: within the first 5 seconds of reaction; Roller et al., 1986
protein synthesis [2] = details: Roller et al., 1986
Escherichia coli = details: Berg et al., 1986; leading to cell death

In the case of [O][Cl+][O-] [chlorine dioxide], the “effect on protein synthesis” value (protein synthesis [1]) is listed as “abrupt inhibition”, the “inhibition of total dehydrogenase enzymes” value (dehydrogenase enzymes) is listed as “inhibited completely” and the “inhibition of protein synthesis” value (protein synthesis [2]) is listed as “partially inhibited”. For the same molecule, the “permeability control of the membrane” value (Escherichia coli) was “impaired”.
